Assays:
Assay in all cases: biochemical
Parameters in all cases: Eurofins recombinant human kinase profiling, remaining kinase activity as % of control, 10 uM ATP
Details in all cases: ATP 10 uM; read-out: %Ctrl@10 μM
Mer(h) = target: T1, Mer(h) (Homo sapiens, UniProt Q12866)
T1 construct: gene MERTK
In short: (§1)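 Recombinant human kinases, 401 in total, screened using an outsourced kinase profiling assay.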

CDK9/cyclin T1(h) = CDK9/cyclin T1(h) (Homo sapiens, UniProt P50750)
In short: as §1

LOK(h) = target: T2, LOK(h) (Homo sapiens, UniProt O94804)
T2 construct: gene STK10
In short: as §1

CaMKIIβ(h) = target: T3, CaMKIIβ(h) (Homo sapiens, UniProt Q13554)
T3 construct: gene CAMK2B
In short: as §1

NEK1(h) = NEK1(h) (Homo sapiens, UniProt Q96PY6)
In short: as §1

Plk3(h) = Plk3(h) (Homo sapiens, UniProt Q9H4B4)
In short: as §1

KDR(h) = KDR(h) (Homo sapiens, UniProt P35968)
In short: as §1

FGFR1(V561M)(h) = FGFR1(V561M)(h) (Homo sapiens, UniProt P11362, V561M)
In short: as §1

Flt3(h) = Flt3(h) (Homo sapiens, UniProt P36888)
In short: as §1

JNK3(h) = target: T4, JNK3(h) (Homo sapiens, UniProt P53779)
T4 construct: gene MAPK10
In short: as §1

CDK5/p25(h) = target: T5, CDK5/p25(h) (Homo sapiens, UniProt Q00535)
T5 construct: p25
In short: as §1

Rsk4(h) = target: T6, Rsk4(h) (Homo sapiens, UniProt Q9UK32)
T6 construct: gene RPS6KA6
In short: as §1

PKG1β(h) = target: T7, PKG1β(h) (Homo sapiens, UniProt Q13976)
T7 construct: gene PRKG1; isoform 1beta
In short: as §1

Itk(h) = Itk(h) (Homo sapiens, UniProt Q08881)
In short: as §1

FGFR2(N549H)(h) = FGFR2(N549H)(h) (Homo sapiens, UniProt P21802, N549H)
In short: as §1

ICK(h) = target: T8, ICK(h) (Homo sapiens, UniProt Q9UPZ9)
T8 construct: gene CILK1
In short: as §1

Wee1(h) = Wee1(h) (Homo sapiens, UniProt P30291)
In short: as §1

PI3 Kinase (p120)(h) = target: T9, PI3 Kinase (p120)(h) (Homo sapiens, UniProt P48736)
T9 construct: gene PIK3CG
In short: as §1

GRK3(h) = GRK3(h) (Homo sapiens, UniProt P35626)
In short: as §1

IKKε(h) = target: T10, IKKε(h) (Homo sapiens, UniProt Q14164)
T10 construct: gene IKBKE
In short: as §1

SRMS(h) = SRMS(h) (Homo sapiens, UniProt Q9H3Y6)
In short: as §1

HRI(h) = target: T11, HRI(h) (Homo sapiens, UniProt Q9BQI3)
T11 construct: gene EIF2AK1
In short: as §1

TLK2(h) = TLK2(h) (Homo sapiens, UniProt Q86UE8)
In short: as §1

Plk3(h), sequence (Q9H4B4 whole entry): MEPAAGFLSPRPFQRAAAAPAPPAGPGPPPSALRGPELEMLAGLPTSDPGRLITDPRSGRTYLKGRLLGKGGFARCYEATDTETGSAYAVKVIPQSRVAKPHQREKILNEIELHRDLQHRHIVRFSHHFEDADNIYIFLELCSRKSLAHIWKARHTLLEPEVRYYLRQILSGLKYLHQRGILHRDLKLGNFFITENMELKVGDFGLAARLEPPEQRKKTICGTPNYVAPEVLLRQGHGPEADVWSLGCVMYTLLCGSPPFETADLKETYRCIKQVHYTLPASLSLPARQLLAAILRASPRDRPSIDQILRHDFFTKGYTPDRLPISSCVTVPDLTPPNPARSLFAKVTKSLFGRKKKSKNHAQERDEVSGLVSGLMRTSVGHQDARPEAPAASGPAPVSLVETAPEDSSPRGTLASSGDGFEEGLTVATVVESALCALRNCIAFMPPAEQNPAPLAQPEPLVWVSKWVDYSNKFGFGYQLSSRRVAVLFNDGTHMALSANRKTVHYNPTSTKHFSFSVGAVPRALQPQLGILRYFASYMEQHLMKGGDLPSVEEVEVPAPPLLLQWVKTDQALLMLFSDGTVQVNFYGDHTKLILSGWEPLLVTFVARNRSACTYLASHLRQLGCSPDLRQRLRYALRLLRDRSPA
T8 sequence (Q9UPZ9 whole entry): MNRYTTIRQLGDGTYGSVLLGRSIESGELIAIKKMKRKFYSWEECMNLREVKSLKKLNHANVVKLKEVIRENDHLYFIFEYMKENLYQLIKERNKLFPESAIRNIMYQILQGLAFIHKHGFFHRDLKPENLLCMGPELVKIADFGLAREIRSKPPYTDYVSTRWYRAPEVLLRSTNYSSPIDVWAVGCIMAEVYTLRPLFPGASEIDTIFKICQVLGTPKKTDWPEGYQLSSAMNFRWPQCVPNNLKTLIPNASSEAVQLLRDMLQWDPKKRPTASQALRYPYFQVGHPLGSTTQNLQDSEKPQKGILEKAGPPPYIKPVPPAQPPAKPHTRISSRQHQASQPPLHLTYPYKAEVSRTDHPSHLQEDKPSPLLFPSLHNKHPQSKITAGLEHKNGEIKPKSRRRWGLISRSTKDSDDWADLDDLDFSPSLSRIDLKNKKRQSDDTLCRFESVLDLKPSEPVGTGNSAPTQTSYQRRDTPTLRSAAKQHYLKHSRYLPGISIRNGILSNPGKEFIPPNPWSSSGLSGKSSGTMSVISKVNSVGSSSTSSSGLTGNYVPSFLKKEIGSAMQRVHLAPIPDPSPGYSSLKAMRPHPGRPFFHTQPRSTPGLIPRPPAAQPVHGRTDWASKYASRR
T9 sequence (P48736 whole entry): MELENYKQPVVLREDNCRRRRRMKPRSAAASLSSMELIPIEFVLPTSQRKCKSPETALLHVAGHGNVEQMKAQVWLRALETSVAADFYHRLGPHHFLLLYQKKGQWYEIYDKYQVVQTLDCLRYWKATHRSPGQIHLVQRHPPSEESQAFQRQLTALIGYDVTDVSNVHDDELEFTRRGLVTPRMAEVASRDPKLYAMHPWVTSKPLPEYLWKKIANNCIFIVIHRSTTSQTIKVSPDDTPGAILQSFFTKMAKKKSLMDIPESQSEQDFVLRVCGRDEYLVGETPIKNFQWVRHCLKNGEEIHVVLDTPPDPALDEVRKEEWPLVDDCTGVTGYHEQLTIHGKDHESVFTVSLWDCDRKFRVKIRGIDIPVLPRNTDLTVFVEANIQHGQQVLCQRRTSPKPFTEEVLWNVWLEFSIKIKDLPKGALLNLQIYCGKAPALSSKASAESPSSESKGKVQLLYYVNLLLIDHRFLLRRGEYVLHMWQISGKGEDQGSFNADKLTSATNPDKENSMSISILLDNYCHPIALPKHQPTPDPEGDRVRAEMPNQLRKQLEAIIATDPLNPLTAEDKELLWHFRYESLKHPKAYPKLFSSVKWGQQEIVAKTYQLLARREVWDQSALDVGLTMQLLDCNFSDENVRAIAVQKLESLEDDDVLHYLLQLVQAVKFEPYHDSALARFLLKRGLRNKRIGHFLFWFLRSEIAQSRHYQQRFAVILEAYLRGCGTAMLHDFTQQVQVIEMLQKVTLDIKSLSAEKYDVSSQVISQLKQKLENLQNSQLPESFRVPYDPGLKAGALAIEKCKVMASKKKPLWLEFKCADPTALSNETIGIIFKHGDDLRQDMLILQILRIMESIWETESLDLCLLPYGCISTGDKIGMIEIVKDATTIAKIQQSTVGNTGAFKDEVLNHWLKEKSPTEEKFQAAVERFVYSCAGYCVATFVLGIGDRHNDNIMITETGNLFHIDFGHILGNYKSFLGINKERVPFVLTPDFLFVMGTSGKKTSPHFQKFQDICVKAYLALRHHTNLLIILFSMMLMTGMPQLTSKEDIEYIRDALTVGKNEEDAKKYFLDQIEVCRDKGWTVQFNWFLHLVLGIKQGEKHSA
T10 sequence (Q14164 whole entry): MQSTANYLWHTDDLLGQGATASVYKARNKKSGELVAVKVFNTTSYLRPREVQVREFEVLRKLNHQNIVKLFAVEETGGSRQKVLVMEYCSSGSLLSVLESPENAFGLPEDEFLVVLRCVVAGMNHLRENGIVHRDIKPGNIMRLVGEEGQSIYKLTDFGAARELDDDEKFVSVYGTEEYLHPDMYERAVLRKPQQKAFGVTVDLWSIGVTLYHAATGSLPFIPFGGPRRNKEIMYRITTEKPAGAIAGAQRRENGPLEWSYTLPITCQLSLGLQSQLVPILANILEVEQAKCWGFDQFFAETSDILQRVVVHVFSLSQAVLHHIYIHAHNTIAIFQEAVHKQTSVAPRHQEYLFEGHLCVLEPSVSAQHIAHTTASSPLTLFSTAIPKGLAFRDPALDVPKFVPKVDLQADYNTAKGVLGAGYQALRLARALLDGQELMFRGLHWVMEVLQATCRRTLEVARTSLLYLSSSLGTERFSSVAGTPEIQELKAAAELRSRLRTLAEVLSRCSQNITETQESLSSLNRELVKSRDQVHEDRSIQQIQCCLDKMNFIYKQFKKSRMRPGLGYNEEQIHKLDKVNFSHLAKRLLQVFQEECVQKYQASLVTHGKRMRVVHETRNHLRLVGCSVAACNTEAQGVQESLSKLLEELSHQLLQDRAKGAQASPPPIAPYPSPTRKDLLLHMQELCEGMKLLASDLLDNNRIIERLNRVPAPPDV
Flt3(h), sequence (P36888 whole entry): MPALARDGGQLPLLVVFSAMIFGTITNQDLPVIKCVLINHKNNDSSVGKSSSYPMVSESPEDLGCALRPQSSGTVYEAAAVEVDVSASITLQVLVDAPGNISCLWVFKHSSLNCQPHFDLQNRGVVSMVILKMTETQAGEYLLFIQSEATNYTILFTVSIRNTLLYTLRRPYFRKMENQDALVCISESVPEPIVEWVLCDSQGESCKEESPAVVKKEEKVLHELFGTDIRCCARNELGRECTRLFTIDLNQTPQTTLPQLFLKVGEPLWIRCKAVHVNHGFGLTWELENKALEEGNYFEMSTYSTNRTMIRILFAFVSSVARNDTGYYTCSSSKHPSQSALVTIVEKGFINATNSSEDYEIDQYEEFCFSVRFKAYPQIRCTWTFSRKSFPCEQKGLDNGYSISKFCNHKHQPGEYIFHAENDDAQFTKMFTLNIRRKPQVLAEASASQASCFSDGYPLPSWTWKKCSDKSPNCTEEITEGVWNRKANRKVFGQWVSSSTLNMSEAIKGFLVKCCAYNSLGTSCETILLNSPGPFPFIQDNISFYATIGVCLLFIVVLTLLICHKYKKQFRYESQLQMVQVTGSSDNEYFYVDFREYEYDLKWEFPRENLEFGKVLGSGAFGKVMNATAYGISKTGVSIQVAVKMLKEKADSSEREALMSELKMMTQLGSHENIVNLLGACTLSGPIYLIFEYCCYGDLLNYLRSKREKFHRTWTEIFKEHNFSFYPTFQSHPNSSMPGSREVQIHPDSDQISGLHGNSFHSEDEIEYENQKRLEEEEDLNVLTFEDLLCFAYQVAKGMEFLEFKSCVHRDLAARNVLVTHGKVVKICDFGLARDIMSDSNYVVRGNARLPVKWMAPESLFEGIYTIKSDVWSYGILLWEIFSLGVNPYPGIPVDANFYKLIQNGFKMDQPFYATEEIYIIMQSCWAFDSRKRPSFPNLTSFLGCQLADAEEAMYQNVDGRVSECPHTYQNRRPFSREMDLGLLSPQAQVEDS
T5 sequence (Q00535 whole entry): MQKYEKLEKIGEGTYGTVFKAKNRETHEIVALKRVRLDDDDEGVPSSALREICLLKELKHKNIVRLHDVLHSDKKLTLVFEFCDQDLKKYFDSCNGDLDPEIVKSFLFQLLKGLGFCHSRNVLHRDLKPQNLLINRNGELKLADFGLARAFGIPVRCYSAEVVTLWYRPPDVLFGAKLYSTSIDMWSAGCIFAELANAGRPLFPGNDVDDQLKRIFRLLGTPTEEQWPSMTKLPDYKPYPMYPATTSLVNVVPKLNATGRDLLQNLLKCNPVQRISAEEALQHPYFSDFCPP
T5 sequence (Q15078 whole entry partner): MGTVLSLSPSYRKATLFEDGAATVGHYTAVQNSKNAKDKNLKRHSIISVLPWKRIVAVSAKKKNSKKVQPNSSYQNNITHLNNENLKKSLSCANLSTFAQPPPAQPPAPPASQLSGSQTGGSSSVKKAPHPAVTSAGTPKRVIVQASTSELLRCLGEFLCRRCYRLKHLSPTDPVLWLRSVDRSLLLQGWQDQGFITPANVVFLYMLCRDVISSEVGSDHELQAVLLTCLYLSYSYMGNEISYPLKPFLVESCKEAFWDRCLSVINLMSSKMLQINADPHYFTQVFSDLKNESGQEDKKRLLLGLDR

**Q.** With C1=C(c2nc(-c3cnn(C4CCNCC4)c3)cn3cc(-c4ccccc4)nc23)CCOC1 [YL-939] as the molecule, how does the remaining activity at 10 µM (Mer(h)) read?
**A.** Its remaining activity at 10 µM is 78%.

**Q.** What about the remaining activity at 10 µM (CDK9/cyclin T1(h)) of the same molecule?
**A.** Its remaining activity at 10 µM is 119%.

**Q.** And the remaining activity at 10 µM (LOK(h))?
**A.** The remaining activity at 10 µM was 95%.

**Q.** And the remaining activity at 10 µM (CaMKIIβ(h))?
**A.** The remaining activity at 10 µM was 70%.

**Q.** What about the remaining activity at 10 µM (NEK1(h)) of the same molecule?
**A.** The remaining activity at 10 µM was 105%.

**Q.** What about the remaining activity at 10 µM (Plk3(h)) of the same molecule?
**A.** Its remaining activity at 10 µM is 103%.

**Q.** And the remaining activity at 10 µM (KDR(h))?
**A.** The remaining activity at 10 µM was 108%.

**Q.** And the remaining activity at 10 µM (FGFR1(V561M)(h))?
**A.** The remaining activity at 10 µM was 65%.

**Q.** What about the remaining activity at 10 µM (Flt3(h)) of the same molecule?
**A.** Its remaining activity at 10 µM is 86%.

**Q.** What about the remaining activity at 10 µM (JNK3(h)) of the same molecule?
**A.** Its remaining activity at 10 µM is 65%.

**Q.** And the remaining activity at 10 µM (CDK5/p25(h))?
**A.** The remaining activity at 10 µM was 120%.

**Q.** What about the remaining activity at 10 µM (Rsk4(h)) of the same molecule?
**A.** Its remaining activity at 10 µM is 73%.

**Q.** And the remaining activity at 10 µM (PKG1β(h))?
**A.** The remaining activity at 10 µM was 83%.

**Q.** And the remaining activity at 10 µM (Itk(h))?
**A.** The remaining activity at 10 µM was 106%.

**Q.** And the remaining activity at 10 µM (FGFR2(N549H)(h))?
**A.** Its remaining activity at 10 µM is 94%.

**Q.** And the remaining activity at 10 µM (ICK(h))?
**A.** The remaining activity at 10 µM was 92%.

**Q.** And the remaining activity at 10 µM (Wee1(h))?
**A.** The remaining activity at 10 µM was 99%.

**Q.** And the remaining activity at 10 µM (PI3 Kinase (p120)(h))?
**A.** Its remaining activity at 10 µM is 104%.

**Q.** What about the remaining activity at 10 µM (GRK3(h)) of the same molecule?
**A.** Its remaining activity at 10 µM is 92%.

**Q.** And the remaining activity at 10 µM (IKKε(h))?
**A.** Its remaining activity at 10 µM is 113%.

**Q.** What about the remaining activity at 10 µM (SRMS(h)) of the same molecule?
**A.** The remaining activity at 10 µM was 122%.

**Q.** What about the remaining activity at 10 µM (HRI(h)) of the same molecule?
**A.** Its remaining activity at 10 µM is 111%.

**Q.** And the remaining activity at 10 µM (TLK2(h))?
**A.** Its remaining activity at 10 µM is 88%.
